From patent publication US20230165884A1, “METHOD AND COMPOSITION FOR TREATING ALZHEIMERS” (Cognitive Synergy Corporation, priority 2021, published 2023)

How the values were obtained:
[1] = test system: neurons with Aβ treatment; experiment: Cell survival assay of various compositions (FIG. 29); assay type: cell-based; conditions: Aβ control 61.7592%
Method: (§1) Orientin, vitexin, and bergenin were detected as possible targets based on identification via Liquid Chromatography—mass Spectrometry (LC-MS) from Synaptecx-227 and verified via mass spectrometric (MS) analysis. Aβ1-42 defibrillation analysis and Aβ1-42 cell survival were performed for various combinations of the above identified targets.
In the control sample with Aβ treatment, the % of surviving neurons is 61.7592% (p value<0.0001 ****).

[2] = biological target: T1, Aβ (Homo sapiens, UniProt P05067); experiment: Fibrillization assay of various compositions (FIG. 28); assay type: biochemical; conditions: control 100% fibrillization
T1 construct: aggregated amyloid beta 1-42 (Aβ1-42)
Method: as §1
The sample treated with a 20 micromolar concentration of orientin, 20 micromolar concentration of vitexin, and 50 micromolar concentration of bergenin decreased Aβ fibrillization by 48.9989% (p value<0.0001 ****).

[3] = biological target: T2, Aβ1-42 protein (Homo sapiens, UniProt P05067); experiment: Percentage of Aβ1-42 protein fibrillization by ThT fluorescence (FIG. 18, 19); assay type: biochemical; set-up: percentage of Aβ fibrillization compared to the control: unit of the concentration uncertain; conditions: for effect on Aβ protein aggregation and/or tau protein accumulation: incubated with Aβ1-42 for 24 hours at 37° C.
T2 construct: aggregated amyloid beta 1-42 (Aβ1-42)
Method: FIG. 18 is an analysis showing a percentage of Aβ1-42 protein fibrillization using thioflavin T (ThT) florescence in various samples. The sample on the left is a control of Aβ1-42 protein. […] The third sample from the left is Aβ protein treated with 10 mM Aconitine. And the fourth sample from the left is Aβ1-42 protein treated with 20 mM Aconitine.
FIG. 19 is an analysis showing an amount of Aβ1-42 protein fibrillization using thioflavin T (ThT) fluorescence in various samples. The sample on the left is a control of Aβ1-42 protein. The second sample from the left is Aβ1-42 protein treated with 200 mM of bergenin. The third sample from the left is Aβ1-42 protein treated with 300 mM bergenin.
The various compounds were incubated with Aβ1-42 for 24 hours at 37° C. to determine the effect of compounds on defibrillation. Further, testing was done to determine an effect of the compounds on tau protein.
Referring to FIG. 18, FIG. 18 is a bar graph 1800 showing a percentage of Aβ protein fibrillization in various samples. The sample on the left is a control 1805 of Aβ protein. […] The third sample 1815 from the left is Aβ protein treated with 10 mM aconitine. And the fourth sample 1820 from the left is Aβ protein treated with 20 mM aconitine.
The intensity for the control 1805 is normalized to 100.
The third sample 1815 includes a concentration of 10 mM aconitine. […] The fourth sample 1820 includes a concentration of 20 mM aconitine.
Referring to FIG. 19, FIG. 19 is a bar graph 1900 showing an amount of Aβ protein in various samples. The sample on the left is a control 1905 of Aβ protein. The second sample 1910 from the left is Aβ protein treated with 200 mM bergenin. The third sample 1915 from the left is Aβ protein treated with 300 mM bergenin.
The control 1905 on the left side of the bar graph 1900, which just contains Aβ protein is normalized to 100. The measurement of the percentage of the Aβ protein in the control 1905 that aggregates into Aβ fibrils is compared against solutions containing bergenin.
The second sample 1910 contains 200 mM bergenin. […] The third sample 1915 contained 300 mM bergenin.

T2 sequence (P05067 672-713): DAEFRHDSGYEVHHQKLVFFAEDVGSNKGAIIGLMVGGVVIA
T1 sequence (P05067 672-713): as above

Row | Compound | decrease of Aβ fibrillization ([2]; 20 micromolar) [%] | effect on Aβ protein aggregation and/or tau protein accumulation [3] | cell survival ([1]; 20 micromolar) [%] | also measured
1 | O=C(N[C@@H](Cc1ccccc1)C(=O)N[C@H](CO)Cc1ccccc1)c1ccccc1 [aurantiamide] | 24.8578 |  |  | cell survival ([1]; 10 micromolar): 71.5173%
2 | COc1c(O)cc2c(c1O)[C@@H]1O[C@H](CO)[C@@H](O)[C@H](O)[C@H]1OC2=O [bergenin] |  | reducing a percentage of Aβ protein aggregation as compared to a control and/or reducing a percentage of tau protein accumulation as compared to a control |  | cell survival ([1]; 50 micromolar): 76.2308%; decrease of Aβ fibrillization ([2]; 50 micromolar): 31.9532%
3 | CCN1C[C@]2(COC)[C@H](O)C[C@H](OC)[C@@]34[C@@H]5C[C@@]6(O)[C@H](OC(=O)c7ccccc7)[C@@H]5[C@@](OC(C)=O)([C@@H]([C@H](OC)[C@H]23)[C@@H]14)[C@@H](O)[C@@H]6OC [aconitine] |  | reducing a percentage of Aβ protein aggregation as compared to a control and/or reducing a percentage of tau protein accumulation as compared to a control |  | percentage of Aβ fibrillization compared to the control ([3]; 10 (unit uncertain)): 82.0%; percentage of Aβ fibrillization compared to the control ([3]; 20 (unit uncertain)): 74.8%
4 | O=c1cc(-c2ccc(O)c(O)c2)oc2c([C@@H]3O[C@H](CO)[C@@H](O)[C@H](O)[C@H]3O)c(O)cc(O)c12 [orientin] | 29.2843 |  | 77.8195 | 
5 | swatinine |  | reducing a percentage of Aβ protein aggregation as compared to a control and/or reducing a percentage of tau protein accumulation as compared to a control |  | 
6 | O=c1cc(-c2ccc(O)cc2)oc2c([C@@H]3O[C@H](CO)[C@@H](O)[C@H](O)[C@H]3O)c(O)cc(O)c12 [vitexin] | 28.8579 |  | 73.4208 | 
